# According to patent US20090111837A1, “USE OF PDE7 INHIBITORS FOR THE TREATMENT OF NEUROPATHIC PAIN” (priority 2005, published 2009):
# Tests used:
# [1] = system: CCI-induced static allodynia; assay: Static allodynia (von Frey hairs) in the chronic constriction injury (CCI) rat model of neuropathic pain; format: in vivo
# Protocol: Male Sprague Dawley rats weighing 150-400 g obtained from Charles River (Manston, Kent, UK.) were housed in groups of 4. All animals were kept under a 12 h light/dark cycle (lights on at 07 h 00 min) with food and water ad libitum. All experiments were carried out by an observer blind to the treatments and in accordance with the Home Office Animals (Scientific Procedures) Act 1986.
# The CCI of sciatic nerve was performed as previously described by Bennett and Xie (Bennett G J, Xie Y K. A peripheral mononeuropathy in rat that produces disorders of pain sensation like those seen in man. Pain: 33:87-107, 1988). Animals were anaesthetised with a 2% isofluorane/O2 mixture. The right hind thigh was shaved and swabbed with 1% iodine. Animals were then transferred to a homeothermic blanket for the duration of the procedure and anaesthesia maintained during surgery via a nose cone. The skin was cut along the line of the thighbone. The common sciatic nerve was exposed at the middle of the thigh by blunt dissection through biceps femoris. About 7 mm of nerve was freed proximal to the sciatic trifurcation, by inserting forceps under the nerve and the nerve gently lifted out of the thigh. Suture was pulled under the nerve using forceps and tied in a simple knot until slight resistance was felt and then double knotted. The procedure was repeated until 4 ligatures (4-0 silk) were tied loosely around the nerve with approx 1 mm spacing. The incision was closed in layers.
# Animals were habituated to wire bottom test cages prior to the assessment of allodynia. Static allodynia was evaluated by application of von Frey hairs (Stoelting, Wood Dale, Ill., USA.) in ascending order of force (0.6, 1, 1.4, 2, 4, 6, 8, 10, 15 and 26 grams) to the plantar surface of hind paws. Each von Frey hair was applied to the paw for a maximum of 6 sec, or until a withdrawal response occurred. Once a withdrawal response to a von Frey hair was established, the paw was re-tested, starting with the filament below the one that produced a withdrawal, and subsequently with the remaining filaments in descending force sequence until no withdrawal occurred. The highest force of 26 g lifted the paw as well as eliciting a response, thus represented the cut off point. Each animal had both hind paws tested in this manner. The lowest amount of force required to elicit a response was recorded as paw withdrawal threshold (PWT) in grams. Static allodynia was defined as present if animals responded to a stimulus of, or less than, 4 g, which is innocuous in naive rats (Field M J, Bramwell S, Hughes J, Singh L. Detection of static and dynamic components of mechanical allodynia in rat models of neuropathic pain: are they signalled by distinct primary sensory neurones? Pain, 1999; 83:303-11).
# All the experiments were conducted in blind. When the experiment was carried out in more then one day and where technically possible, all groups occurred on each day with equal replication. Static allodynia was expressed as median [LQ; UQ] and analysed by Mann Whitney U test. Dynamic allodynia was expressed as arithmetic mean±SEM and analysed by ANOVA.
# [2] = system: CCI-induced dynamic allodynia; assay: Dynamic allodynia (cotton bud stroking) in the chronic constriction injury (CCI) rat model of neuropathic pain; format: in vivo
# Protocol: Male Sprague Dawley rats weighing 150-400 g obtained from Charles River (Manston, Kent, UK.) were housed in groups of 4. All animals were kept under a 12 h light/dark cycle (lights on at 07 h 00 min) with food and water ad libitum. All experiments were carried out by an observer blind to the treatments and in accordance with the Home Office Animals (Scientific Procedures) Act 1986. The CCI of sciatic nerve was performed as previously described by Bennett and Xie (Bennett G J, Xie Y K. A peripheral mononeuropathy in rat that produces disorders of pain sensation like those seen in man. Pain: 33:87-107, 1988). Animals were anaesthetised with a 2% isofluorane/O2 mixture. The right hind thigh was shaved and swabbed with 1% iodine. Animals were then transferred to a homeothermic blanket for the duration of the procedure and anaesthesia maintained during surgery via a nose cone. The skin was cut along the line of the thighbone. The common sciatic nerve was exposed at the middle of the thigh by blunt dissection through biceps femoris. About 7 mm of nerve was freed proximal to the sciatic trifurcation, by inserting forceps under the nerve and the nerve gently lifted out of the thigh. Suture was pulled under the nerve using forceps and tied in a simple knot until slight resistance was felt and then double knotted. The procedure was repeated until 4 ligatures (4-0 silk) were tied loosely around the nerve with approx 1 mm spacing. The incision was closed in layers. Dynamic allodynia was assessed by lightly stroking the plantar surface of the hind paw with a cotton bud. To avoid recording general motor activity, care was taken to perform this procedure in fully habituated rats that were not active. At least two measurements were taken at each time point, the mean of which represented the paw withdrawal latency (PWL). […] A pain withdrawal response was often accompanied with repeated flinching or licking of the paw. Dynamic allodynia was considered to be present if animals responded to the cotton stimulus within 8 sec of commencing stroking (Field et al, 1999). All the experiments were conducted in blind. When the experiment was carried out in more then one day and where technically possible, all groups occurred on each day with equal replication. Static allodynia was expressed as median [LQ; UQ] and analysed by Mann Whitney U test. Dynamic allodynia was expressed as arithmetic mean±SEM and analysed by ANOVA.
# [3] = CCI rats, PO, 0.3, 1 and 3 mg/kg
# [4] = CCI rats, PO, post administration
# [5] = CCI rats, oral (PO), doses 0.3, 1 and 3 mg/kg
# [6] = highest dose (3 mg/kg PO) vs gabapentin 100 mg/kg PO
# [7] = highest dose (3 mg/kg PO), post dose, p<0.01 vs vehicle
smiles,measurement,setting,value
"O=C(O)CCCOc1ccc(Cl)c2c1C1(CCCCC1)NC(=O)N2 [5′-(3-(Carboxy)propoxy)-8′-chlorospiro[cyclohexane-1,4′-quinazolin]-2′(1′H)-one]",effect on CCI-induced static allodynia,[1]; [3],reversed the maintenance of CCI-induced static and dynamic allodynia in a dose dependent manner
same,"time of peak effect, static allodynia",[1]; [4],1 h
same,MED for static allodynia,[1]; [5],1 mg/kg
same,"static allodynia reversal, curve profile versus gabapentin",[1]; [6],comparable to gabapentin
same,"onset of anti-allodynic effect, static allodynia",[1]; [7],30 min
same,effect on CCI-induced dynamic allodynia,[2]; [3],reversed the maintenance of CCI-induced static and dynamic allodynia in a dose dependent manner
same,"time of peak effect, dynamic allodynia",[2]; [4],1 h
same,MED for dynamic allodynia,[2]; [5],3 mg/kg
same,dynamic allodynia effect versus gabapentin,[2]; [6],less potent but significantly different from vehicle treated CCI rats
same,"dynamic allodynia, paw withdrawal latency (mean±SEM)","[2]; highest dose (3 mg/kg PO), 1 hrs post administration, vehicle treated CCI rats 3.7±0.7, latency recorded in sec, in s",10.2±1.4
same,"onset of anti-allodynic effect, dynamic allodynia",[2]; [7],30 min
